Measurements taken from the supplement of paper PMC3493320.

Legend:
NCI-H295R [1] = experiment: maximal response (efficacy) relative to DMSO (0%) and doxorubicin (-100%); higher = less growth inhibition; conditions: 48 h
NCI-H295R [2] = experiment: IC50 (antiproliferative, ATP content); conditions: 48 h
Summary of the method: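 Compounds were pin-transferred at 8 final concentrations between 0.6 nM and 46 µM onto adrenocortical carcinoma cells (1500 per well, 1536-well plates) that had been cultured overnight in serum-free DMEM with ITS. Plates then stood 48 h at 37 °C, 5% CO2, and ATP was detected by CellTiter-Glo luminescence. IC50 was derived from logistic fits of normalised signal, and compounds giving no concentration response were noted as above the top dose.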

| IC50 (NCI-H295R [2]) [µM] | Compound | maximal response (NCI-H295R [1]) [%] |
| --- | --- | --- |
|  | CN1CCC(CN2c3ccccc3Sc3ccccc32)C1.Cl (stereo unspecified) | -26.6 |
|  | COc1cc(C)c(Cc2cnc(N)nc2N)cc1OC | -57.4 |
|  | O=C1c2ccccc2C(=O)C1c1ccccc1 | -24.9 |
|  | Cl.O=C(C[C@@H]1NCCC[C@H]1O)Cn1cnc2cc(Br)c(Cl)cc2c1=O | -28.3 |
| > 46 | CC1(C)S[C@@H]2[C@H](NC(=O)[C@@H](NC(=O)N3CCNC3=O)c3ccccc3)C(=O)N2[C@H]1C(=O)[O-].[Na+] |  |
| > 46 | Cc1cccc(C)c1NC(=O)C1CCCCN1C.Cl (stereo unspecified) |  |
| > 46 | CC[C@H]1OC(=O)[C@H](C)[C@@H](O[C@H]2C[C@@](C)(OC)[C@@H](O)[C@H](C)O2)[C@H](C)[C@@H](O[C@@H]2O[C@H](C)C[C@H](N(C)C)[C@H]2O)[C@](C)(O)C[C@@H](C)C(=NOCOCCOC)[C@H](C)[C@@H](O)[C@]1(C)O |  |
| > 46 | CCCOC(C(=O)OC1CCN(C)CC1)(c1ccccc1)c1ccccc1.Cl |  |
| > 46 | O=C(NCC(O)CO)c1c(I)c(C(=O)NCC(O)CO)c(I)c(N(CCO)C(=O)CO)c1I (stereo unspecified) |  |
| > 46 | Cc1c(N(C)CS(=O)(=O)[O-])c(=O)n(-c2ccccc2)n1C.[Na+] |  |
| > 46 | Cc1cnc(C(=O)NCCc2ccc(S(=O)(=O)NC(=O)NC3CCCCC3)cc2)cn1 |  |
| > 46 | CCCC1C(=O)N2C(N(C)C)=Nc3ccc(C)cc3N2C1=O (stereo unspecified) |  |
| > 46 | Nc1nc2c(ncn2COC(CO)CO)c(=O)[nH]1 |  |
| > 46 | CCCCN1CCCC[C@H]1C(=O)Nc1c(C)cccc1C.Cl |  |
| > 46 | NS(=O)(=O)c1cc2c(cc1Cl)N=C(CSCc1ccccc1)NS2(=O)=O |  |
| > 46 | COc1cc(N)c(Cl)cc1C(=O)NC1CCN(CCCOc2ccc(F)cc2)CC1OC (stereo unspecified) |  |
| > 46 | COC(=O)c1ccc(O)cc1 |  |
| > 46 | C[C@@H](CN1CC(=O)NC(=O)C1)N1CC(=O)NC(=O)C1 |  |
| > 46 | Cc1cc(=O)n(-c2ccccc2)n1C |  |
| > 46 | O=C([O-])Cc1ccccc1Nc1c(Cl)cccc1Cl.[Na+] |  |
| > 46 | Clc1ccc2c(c1)C(N1CCNCC1)=Nc1ccccc1O2 |  |
| > 46 | CS(=O)(=O)OCC(O)C(O)COS(C)(=O)=O (stereo unspecified) |  |
| > 46 | CCCCCCCCCCCCCC[n+]1ccc(C)cc1.[Cl-] |  |
| > 46 | OC[C@@H](O)[C@@H](O)[C@@H](CO)O |  |
| > 46 | N/1C(N(\C=C\1)C)=S |  |

| IC50 (NCI-H295R [2]) [µM] | Compound | maximal response (NCI-H295R [1]) [%] |
| --- | --- | --- |
| > 46 | CC(=O)c1ccc2c(c1)N(CCCN1CCC(CCO)CC1)c1ccccc1S2 |  |
| > 46 | OC[C@@H](O)[C@@H](O[C@@H]1O[C@H](CO)[C@H](O)[C@H](O)[C@H]1O)[C@H](O)[C@@H](O)CO |  |
| > 46 | O=C(c1ccccc1)c1ccc2n1CCC2C(=O)O (stereo unspecified) |  |
| > 46 | FC(F)(F)COCC(F)(F)F |  |
| > 46 | O=[C@](OC)[C@H]3[C@@]2([H])C[C@](N4C[C@]([H])2C[C@H](OC)[C@@H]3OC)([H])C1=C(CC4)C(C=C5)=C(C=C5OC)N1.Cl |  |
| > 46 | COc1ccc2c(c1)C(=O)N(CCc1ccc(S(=O)(=O)NC(=O)NC3CCCCC3)cc1)C(=O)C2(C)C |  |
| > 46 | O=C([O-])CN(CCN(CC(=O)[O-])CC(=O)[O-])CC(=O)[O-].[Ca+2].[Na+].[Na+] |  |
| > 46 | CCCN(CCC)S(=O)(=O)c1ccc(C(=O)O)cc1 |  |
| > 46 | O=C(NNCNNC(=O)c1ccncc1)c1ccncc1 |  |
| > 46 | CNC[C@H](O)c1ccc(O)c(O)c1 |  |
| > 46 | CN1CCCC(CC2c3ccccc3Sc3ccccc32)C1.Cl (stereo unspecified) |  |
| > 46 | Cc1cc2nc3c(=O)[nH]c(=O)nc-3n(C[C@H](O)[C@H](O)[C@H](O)CO)c2cc1C |  |
| > 46 | O=C1O[C@H](CO)[C@@H](O)[C@H](O)[C@H]1O |  |
| > 46 | O=[C@](N[C@H]2C[C@@H]2[C@]3=CC=CC=C3)[C@H]1NC(CC1)=O |  |
| > 46 | COc1cc2nc(N3CCN(C(=O)C4CCCO4)CC3)nc(N)c2cc1OC.Cl (stereo unspecified) |  |
| > 46 | CO/N=C(\C(=O)N[C@@H]1C(=O)N2C(C(=O)O)=C(CSc3cnns3)CS[C@H]12)c1csc(N)n1.Cl |  |
| > 46 | CC(C)(C)NCC(O)c1ccc(O)c(CO)c1 (stereo unspecified) |  |
| > 46 | CCCCC[C@H](O)/C=C/[C@@H]1[C@@H](C/C=C\CCCC(=O)O)[C@@H](O)C[C@H]1O |  |
| > 46 | Clc1ccccc1CN1CCc2sccc2C1 |  |
| > 46 | CC(=O)[C@@]3(O)CC[C@H]4[C@@H]5/C=C(/Cl)\C2=C\C(=O)[C@@H]1C[C@@H]1[C@]2(C)[C@H]5CC[C@]34C |  |
| > 46 | CC(=O)N=c1sc(S(N)(=O)=O)nn1C |  |
| > 46 | Cl.O=C(Nc1ccccc1)OCC(CN1CCCCC1)OC(=O)Nc1ccccc1 (stereo unspecified) |  |
| > 46 | CN(C)c1ccc(O)c2c1C[C@H]1C[C@H]3[C@H](N(C)C)C(O)=C(C(N)=O)C(=O)[C@@]3(O)C(O)=C1C2=O.Cl |  |
| > 46 | O=C(O)CNC(=O)c1ccccc1I |  |
| > 46 | NS(=O)(=O)c1cc2c(cc1C(F)(F)F)NC(Cc1ccccc1)NS2(=O)=O (stereo unspecified) |  |

| IC50 (NCI-H295R [2]) [µM] | Compound | maximal response (NCI-H295R [1]) [%] |
| --- | --- | --- |
| > 46 | CN1CCN(c2c(F)cc3c(=O)c(C(=O)O)cn4c3c2SCC4)CC1.Cl |  |
| > 46 | C[C@]12CCC(=O)C=C1CC[C@H]1[C@@H]3CC[C@](O)(C(=O)CO)[C@@]3(C)C[C@H](O)[C@@]12F |  |
| > 46 | C[C@H]1C(=O)NC2=Nc3cccc(Cl)c3CN21 |  |
| > 46 | CCOc1ccc(S(=O)(=O)O)c2cccnc12 |  |
| > 46 | CCCCCCCC(=O)OCC(O)CO (stereo unspecified) |  |
| > 46 | O=C1[C@H]3[C@H](C3)[C@@]([C@]4([H])[C@@]([C@@]5([H])[C@]([C@@](CC5)(OC(C)=O)[C@@](C)=O)(C)CC4)([H])C=C2Cl)(C)C2=C1 |  |
| > 46 | CCN(CC)C(=O)c1ccc(O)c(OC)c1 |  |
| > 46 | NS(=O)(=O)c1cc(C(=O)O)cc(N2CCCC2)c1Oc1ccccc1 |  |
| > 46 | O=C1O[C@H]([C@@H](O)CO)C(O)=C1O |  |
| > 46 | CCCCCCCCCCCCOCCCN |  |
| > 46 | CC(=O)Oc1ccc(C(=C2CCCCC2)c2ccc(OC(C)=O)cc2)cc1 |  |
| > 46 | O=C(NCCO[N+](=O)[O-])c1cccnc1 |  |
| > 46 | [NH2][Pt]1([NH2])[O]CC(=O)[O]1 |  |
| > 46 | CC1(C)S[C@@H]2[C@H](NC(=O)C(N)c3ccccc3)C(=O)N2[C@H]1C(=O)OC1OC(=O)c2ccccc21.Cl (stereo partly specified) |  |
| > 46 | C=CCc1cc(OC)c(O)c(C(=O)NCCO)c1 |  |
| > 46 | NS(=O)(=O)c1cc2c(cc1Cl)NCNS2(=O)=O |  |
| > 46 | CC(C)CCOC(=O)c1ccc(N(C)C)cc1 |  |
| > 46 | OCCOCCOCCO |  |
| > 46 | Cc1c[nH]c2ccccc12 |  |
| > 46 | O=C(Nc1ccc(O)cc1)c1ccccc1O |  |
| > 46 | O=C1[C@H](CC[C@@H](C4=CC=C(F)C=C4)O)[C@@H]([C@]3=CC=C(O)C=C3)N1C2=CC=C(F)C=C2 |  |
| > 46 | O=C(O)c1cc(O)c(O)c(O)c1 |  |
| > 46 | NC(=O)c1ccc([N+](=O)[O-])cc1Cl |  |

| Compound | IC50 (NCI-H295R [2]) [µM] | maximal response (NCI-H295R [1]) [%] |
| --- | --- | --- |
| Clc1cccc(SC2CCNCC2)n1 | > 46 |  |
| CCC1(C)CC(=O)NC(=O)C1 | > 46 |  |
| O=C(O)CCC(=O)O.c1ccc(C2(c3ccccc3)CC2C2=NCCN2)cc1 (stereo unspecified) | > 46 |  |
| CCOP(=O)(OCC)OC(=CCl)c1ccc(Cl)cc1Cl | > 46 |  |
| CCN(CCCc1ccccc1)CCCc1ccccc1.O=C(O)CC(O)(CC(=O)O)C(=O)O | > 46 |  |
| CCC1(c2ccccc2)C(=O)NC(=O)N(C(=O)c2ccccc2)C1=O (stereo unspecified) | > 46 |  |
| Oc1cc(Cl)c(Cl)cc1Cl | > 46 |  |
| CCCC(=O)OC(C(Cl)(Cl)Cl)P(=O)(OC)OC (stereo unspecified) | > 46 |  |
| Cl.O=C(OCCN1CCCCC1)C(O)(c1ccccc1)c1ccccc1 | > 46 |  |
| CC(C)CCON=O | > 46 |  |
| CC(=O)O[C@H]1C[C@@H]2CC[C@@H]3[C@H](CC[C@@]4(C)[C@H]3C[C@H]([N+]3(C)CCCCC3)[C@@H]4OC(C)=O)[C@@]2(C)C[C@@H]1[N+]1(C)CCCCC1.[Br-].[Br-] | > 46 |  |
| CN1CCN(C2=Nc3ccccc3Oc3ccc(Cl)cc32)CC1.O=C(O)CCC(=O)O | > 46 |  |
| CO[C@H]1C[C@H](O[C@H]2[C@H](C)[C@@H](O[C@@H]3O[C@H](C)C[C@H](N(C)C)[C@H]3O)[C@@H](C)C[C@]3(CO3)C(=O)[C@H](C)[C@@H](O)[C@@H](C)[C@@H](C)OC(=O)[C@@H]2C)O[C@@H](C)[C@@H]1O.O=P(O)(O)O | > 46 |  |
| CNC1=Nc2ccc(Cl)cc2C(c2ccccc2)=[N+]([O-])C1 | > 46 |  |
| O=C1Nc2ccc(Cl)cc2C(c2ccccc2Cl)=NC1O (stereo unspecified) | > 46 |  |
| Clc1ccc(Cl)cc1 | > 46 |  |
| CC(C)(C)NC[C@H](O)COc1ccccc1C1CCCC1.CC(C)(C)NC[C@H](O)COc1ccccc1C1CCCC1.O=S(=O)(O)O | > 46 |  |
| CCC(=O)O[C@@](Cc1ccccc1)(c1ccccc1)[C@@H](C)CN(C)C.O=S(=O)(O)c1ccc2ccccc2c1 | > 46 |  |
| CC(C)(N)Cc1ccc(Cl)cc1.Cl | > 46 |  |
| CN1C(C)(C)CCCC1(C)C.O=C(O)[C@@H](O)[C@H](O)C(=O)O | > 46 |  |
| NC[C@H]1O[C@H](O[C@H]2[C@H](O[C@@H]3O[C@H](CO)[C@@H](O)[C@H]3O)C(O)[C@H](N)C[C@@H]2N)[C@H](N)[C@@H](O)[C@@H]1O.O=S(=O)(O)O (stereo partly specified) | > 46 |  |
| CS(=O)(=O)O.N=C(N)Nc1ccc(C(=O)Oc2ccc3cc(C(=N)N)ccc3c2)cc1 | > 46 |  |
| O=C(O)/C=C\C(=O)O.O=C(O)/C=C\C(=O)O.c1cc(CN2CCCCC2)cc(OCCCNc2nc3ccccc3s2)c1 | > 46 |  |
